In US20210040151A1, “MICROMOLECULE POLYPEPTIDE AND USE THEREOF” (NANFANG HOSPITAL OF SOUTHERN MEDICAL UNIVERSITY, priority 2019, published 2021):
“Also recorded” adds a separate entry of the source.

Tests used:
UUO mice = experiment: Kidney fibrosis in UUO (unilateral ureter ligation) mouse model: sirus scarlet staining, fibronectin immunostaining, western blot; type: in vivo, BALB/C mice
Protocol: (§1) BALB/C mice, male and female, a weight ranging from 20 g to 22 g, and a SPF grade.
(§2) The animals were weighed and numbered. 18 healthy mice with a weight ranging from 20 g to 22 g were selected and randomly divided into 3 groups, with 6 mice in each group, including a sham operation group, a model group and an administration group.
(§3) 1) Sham operation group: at a room temperature, after mice were anaesthetized with 3% pentobarbital sodium at 1 ml/kg body weight, a left abdomen part of 2 cm to 3 cm was selected as an incision; and skin, a subcutaneous layer, a muscular layer and a peritoneum were cut layer by layer after local disinfection, and then were sutured layer by layer immediately after finding a left ureter. After local disinfection, the mice were verified and marked, and then placed in a corresponding mouse cage.
(§4) 2) Model control group: anesthetization and disinfection were performed same as the sham operation group. Skin, a subcutaneous layer, a muscular layer and a peritoneum were cut layer by layer, and then were sutured layer by layer after finding a left ureter and performing a ligation at an upper ⅓ segment of the ureter. After local disinfection, the mice were verified and marked, and then placed in a corresponding mouse cage.
as §4, with “3) Administration” for “2) Model control”, “as” for “as the”
KP-6T or KP-6 water soluble powder was diluted with sterile 0.01 Mol glacial acetic acid solution to a storage concentration of 10 mg/ml. The mice of each experimental group were raised in different cages. The sham operation group was only observed. The model control group was only given 0.01 Mol glacial acetic acid solution by tail vein injection. The administration group was given glacial acetic acid solution containing KP-6T or KP-6 of 0.5 mg/kg of body weight by tail vein injection on the 1st or 5th day after UUO operation for 6 consecutive days. The mice in each group were euthanized after 7 days or 11 days of raising, left kidneys were taken, and then tissues were respectively fixed with 10% neutral formaldehyde and frozen with liquid nitrogen. The formaldehyde-fixed tissues were dehydrated, embedded, sliced and flaked, and then subjected to sirus scarlet staining and fibronectin immumohistochemical staining respectively. A protein was extracted after homogenization of the frozen tissues, and a fibrosis index, and expression levels of an active-β-catenin and a target gene thereof were detected by western blot.
1) A degree of kidney tissue fibrosis was detected by sirus scarlet staining.

β-catenin signal pathway = β-catenin signal pathway in kidney tissue of UUO mice: western blot, mRNA of target genes; type: in vivo, BALB/C mice
Protocol: as §1, §2, §3, §4
as §4, with “3) Administration” for “2) Model control”, “as” for “as the”
KP-6T or KP-6 water soluble powder was diluted with sterile 0.01 Mol glacial acetic acid solution to a storage concentration of 10 mg/ml. The mice of each experimental group were raised in different cages. […] A protein was extracted after homogenization of the frozen tissues, and a fibrosis index, and expression levels of an active-β-catenin and a target gene thereof were detected by western blot.

[1] = UUO mice, 0.5 mg/kg tail vein injection for 6 days from 1st or 5th day after UUO, vs model control group (FIG. 2 and FIG. 5)
[2] = advanced UUO mouse, administration from 5th day after UUO, 0.5 mg/kg tail vein, vs model group (FIG. 7)
[3] = advanced UUO mouse, administration from 5th day after UUO, 0.5 mg/kg tail vein, vs model group (FIG. 7), 0.5 mg/kg
[4] = UUO mice, 0.5 mg/kg tail vein injection for 6 days from 1st or 5th day after UUO, vs model control group (FIG. 3 and FIG. 6)

LQDAYGGWANR (Synthesized by Nanjing Genscript Biotechnology Co. Ltd.) [KP-6T]
collagen deposition in renal interstitium (sirus scarlet staining) (UUO mice; UUO mice, 0.5 mg/kg tail vein injection for 6 consecutive days from 1st or 5th day after UUO, vs model control group (FIG. 1 and FIG. 4)): significantly lower
level of fibronectin in kidneys (UUO mice; [1]): significantly reduced
level of smooth muscle actin α (α-SMA) in kidneys (UUO mice; [1]): significantly reduced
collagen deposition in the renal interstitium (UUO mice; administered the 5th day after UUO): significantly inhibit
deposition of extracellular matrix in renal interstitium (UUO mice; [2]): significantly reduced
protein Klotho expressed by healthy kidney tubular epithelial cells (UUO mice; [2]): recovered
level of fibronectin in kidneys (UUO mice; [3]): significantly reduced; also recorded: significantly inhibit
level of smooth muscle actin α (α-SMA) in kidneys (UUO mice; [3]): significantly reduced; also recorded: significantly inhibit
expression level of downstream target gene of β-catenin (PAI-1, Snail-1, MMP7 mRNA) in kidneys (β-catenin signal pathway; [4]): significantly reduced
expression level of β-catenin protein in kidneys (β-catenin signal pathway; [4]): significantly reduced
Wnt signal pathway (active-β-catenin) (β-catenin signal pathway; [2]): inhibited
